For assay [1], the target named is CB1 receptor (Rattus norvegicus, UniProt P20272). In words: CB1 binding procedure: displacement of [3H]CP 55,940 from rat whole-brain P2 membranes. The arrangement: whole brain was homogenized and centrifuged; from tissue; host or cells: rat whole brain, P2 membrane fraction. The conditions noted are these: for Ki: means ± SEM, [3H]CP 55,940, rat brain membranes, read-out: Ki (nM) CB1; for fold decrease in CB1 affinity: relative to the comparator analog.

The subject of assay [2] is Male ICR mice. In words: Change in rectal temperature (RT) in mice. Type of assay: in vivo, mouse. The conditions noted are these: Mus musculus, iv, mice, i.v.
The test system of assay [3] is Male ICR mice. In words: Tail-flick antinociception (TF, % MPE) in mice. It counts as in vivo, mouse. The conditions noted are these: Mus musculus, iv, mice, i.v.
Where [4] appears, read: 95% confidence limits in parentheses, read-out: ED50 RT (rectal temperature).
[5] abbreviates: 95% confidence limits in parentheses, read-out: ED50 TF (antinociceptive effect in tail flick assay).

Structures are written as SMILES.

Chain of CB1 receptor (P20272 whole entry): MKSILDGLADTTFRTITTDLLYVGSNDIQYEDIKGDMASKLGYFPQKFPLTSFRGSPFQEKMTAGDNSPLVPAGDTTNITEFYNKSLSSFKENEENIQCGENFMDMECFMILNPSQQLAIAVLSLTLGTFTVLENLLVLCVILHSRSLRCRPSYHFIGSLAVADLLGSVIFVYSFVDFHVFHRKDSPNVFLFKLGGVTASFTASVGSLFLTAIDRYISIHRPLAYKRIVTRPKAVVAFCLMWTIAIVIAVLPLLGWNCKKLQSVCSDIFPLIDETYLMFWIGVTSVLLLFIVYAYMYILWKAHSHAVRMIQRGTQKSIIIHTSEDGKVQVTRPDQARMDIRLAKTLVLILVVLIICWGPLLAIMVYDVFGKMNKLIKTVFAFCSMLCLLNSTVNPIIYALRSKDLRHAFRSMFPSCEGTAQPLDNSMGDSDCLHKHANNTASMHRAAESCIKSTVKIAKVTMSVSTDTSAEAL

Consider `CCCCCCC(C)(C)c1cc(O)c(C2CCCC(C)C2)c(O)c1` (mixture of isomers) [O-1657, 2-(3-Methylcyclohexyl)-5-(1′,1′-dimethylheptyl)-resorcinol], for which the Ki in assay [1] worked out at 14 nM. Besides, the ED50 in assay [2] (Table 6, read-out: R.T. ED50) was found to be 0.29 mg/kg; in assay [2] (setting [4]), 0.9 µmol/kg; in assay [3] (Table 6, read-out: T.F. ED50) it was 0.23 mg/kg; in assay [3] (setting [5]), 0.6 µmol/kg.
With `CCCCCCC(C)(C)c1cc(O)c([C@H]2CCCC(C)C2)c(O)c1` (single isomer, unassigned) [O-1826], the Ki in assay [1] was determined as 40 nM. Also, the 50% effective dose (ED50) was 1.16 mg/kg in assay [2] (Table 6, read-out: R.T. ED50); 3.6 µmol/kg in assay [2] (setting [4]); 0.821 mg/kg in assay [3] (Table 6, read-out: T.F. ED50); 2.4 µmol/kg in assay [3] (setting [5]).
On to `CCCCCCC(C)(C)c1ccc(-c2cc(C)ccc2C(C)C)c(O)c1` [O-1376, 3-1′,1′-Dimethylheptyl-6-(2-isopropyl-5-methylphenyl)phenol], for which, in assay [1], the Ki worked out at 33 ± 4 nM. Also, the 50% effective dose (ED50) was found to be 0.822 mg/kg in assay [2] (Table 6, read-out: R.T. ED50); 2.3 µmol/kg in assay [2] (setting [4]); 1.97 mg/kg in assay [3] (Table 6, read-out: T.F. ED50); 5.7 µmol/kg in assay [3] (setting [5]).
For `CCCCCCC(C)(C)c1cc(O)c(C2CCCCC2)c(O)c1` [O-1422, Cyclohexyl-5-(1′,1′-dimethylheptyl)-resorcinol], in that order: 11 ± 2 nM, 0.194 mg/kg, 0.6 µmol/kg, 0.241 mg/kg and 0.6 µmol/kg.
Take `CCCCCCC(C)(C)c1cc(O)c(C2=CCCCC2)c(O)c1` [O-1423]: in assay [1], the Ki was found to be 97 ± 5 nM. The ED50 in assay [2] (Table 6, read-out: R.T. ED50) was 2.94 mg/kg; in assay [2] (setting [4]), 9 µmol/kg; in assay [3] (Table 6, read-out: T.F. ED50), 2.86 mg/kg; in assay [3] (setting [5]) it was 9 µmol/kg.
With `CCCCCCC(C)(C)c1cc(O)c(C2CCSCC2)c(O)c1` [O-1425], the Ki in assay [1] is 153 ± 17 nM. Further, the “fold decrease in CB1 affinity” value in assay [1] came to 14 fold. Further, the ED50 in assay [2] (Table 6, read-out: R.T. ED50) stood at 4.53 mg/kg; in assay [2] (setting [4]) it was 13 µmol/kg; in assay [3] (Table 6, read-out: T.F. ED50), 5.05 mg/kg; in assay [3] (setting [5]), 15 µmol/kg.
For the compound `CCCCCCC(C)(C)c1cc(O)c(C2CCCCC2C)c(O)c1` (stereo not drawn) [O-1658, 2-(2-Methylcyclohexyl)-5-(1′,1′-dimethylheptyl)-resorcinol], the Ki in assay [1] was found to be 16 ± 2 nM. Besides, the ED50 in assay [2] (Table 6, read-out: R.T. ED50) worked out at 0.12 mg/kg; in assay [2] (setting [4]), 0.3 µmol/kg; in assay [3] (Table 6, read-out: T.F. ED50), 0.09 mg/kg; in assay [3] (setting [5]) it was 0.3 µmol/kg.
As to `CCCCCCC(C)(C)c1cc(O)c(C2CCC(C)CC2)c(O)c1` (stereo not drawn) [O-1659, 2-(4-Methylcyclohexyl)-5-(1′,1′-dimethylheptyl)-resorcinol], the Ki in assay [1] turned out to be 45 ± 1 nM. In addition, the “fold decrease in CB1 affinity” value in assay [1] is given as “about 5 fold”. Besides, the ED50 in assay [2] (Table 6, read-out: R.T. ED50) is 1.12 mg/kg; in assay [2] (setting [4]) it was 3.3 µmol/kg; in assay [3] (Table 6, read-out: T.F. ED50) it was 1.35 mg/kg; in assay [3] (setting [5]) it was 3.9 µmol/kg.
Regarding `CCCCCCC(C)(C)c1cc(O)c(C2C3CC4CC(C3)CC2C4)c(O)c1` (stereo not drawn) [O-1660, 2-(2-Adamantyl)-5-(1′,1′-di-methylheptyl)-resorcinol], in assay [1], the inhibition constant Ki was determined as 7 ± 1 nM. Also, the ED50 worked out at 1.73 mg/kg in assay [2] (Table 6, read-out: R.T. ED50); 4.6 µmol/kg in assay [2] (setting [4]); 0.911 mg/kg in assay [3] (Table 6, read-out: T.F. ED50); 2.4 µmol/kg in assay [3] (setting [5]).
For `CCCCCCC(C)(C)c1cc(O)c(C2CCSC2)c(O)c1` (stereo not drawn) [O-1661, 2-(Tetrahydrothiophen-3-yl)-5-(1′,1′-dimethylheptyl)-re-sorcinol], the Ki in assay [1] stood at 138 ± 4 nM. Moreover, the median effective dose (ED50) in assay [2] (Table 6, read-out: R.T. ED50) is 7.78 mg/kg; in assay [2] (setting [4]), 24 µmol/kg; in assay [3] (Table 6, read-out: T.F. ED50), 4.39 mg/kg; in assay [3] (setting [5]), 14 µmol/kg.
For `CCCC(C)(C)c1cc(O)c(C2CCCC(C)C2)c(O)c1` (stereo not drawn) [O-1890, 2-(3-Methylcyclohexyl)-5-(1′,1′-dimethylbutyl)-resorcinol], the Ki in assay [1] was determined as 96 ± 4 nM. The median effective dose (ED50) in assay [2] (Table 6, read-out: R.T. ED50) is 21 mg/kg; in assay [2] (setting [4]), 72 µmol/kg; in assay [3] (Table 6, read-out: T.F. ED50) it was 14 mg/kg; in assay [3] (setting [5]), 48 µmol/kg.

Values taken from patent US7179800B2 (priority 2002, dated 2007).
